Results reported in patent US6841661B2, “Glycopeptide antibacterial compounds, compositions containing same and methods of using same” (Princeton Univerisity, priority 1999, dated 2005).

Key:
[1] = tested on: E. faecium CL 5242 (VanA); assay: microbe, parasite or virus in culture; assay type: cell-based; parameters: CL5242 (in vitro testing): unit not given here; conditions: Tables 7 and 8; unit not given
Outline: (§1)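 NCCLS M7-A4-based broth microdilution with twofold serial dilutions, incubated at 35° C; medium BHI for enterococci and VISA/MRSA, cation-adjusted Mueller-Hinton for E. coli. Inoculum about 1-5×10^6 CFU/ml (enterococci) or 3-7×10^5 CFU/ml (others); MIC is lowest concentration with no visible growth, read at 18-20 hr for E. coli, 22-24 hr otherwise.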

[2] = tested on: E. faecium CL 4931 (VanA); assay: microbe, parasite or virus in culture; assay type: cell-based; parameters: CL4931 (in vitro testing): unit not given here; conditions: Tables 7 and 8; unit not given
Outline: as §1

[3] = tested on: E. faecium CL 5053 (VanA); assay: microbe, parasite or virus in culture; assay type: cell-based; parameters: CL5053 (in vitro testing): unit not given here; conditions: Tables 7 and 8; unit not given
Outline: as §1

[4] = tested on: CL 4931, CL 5053, CL 5242 and CL 4877; assay type: cell-based, E. faecium, E. faecalis; parameters: unit not given here; conditions: mean of CL4931, CL5053, CL5242, CL4877; unit not given
Outline: as §1

[5] = tested on: E. faecalis CL 4877 (VanB); assay: microbe, parasite or virus in culture; assay type: cell-based; parameters: CL4877 (in vitro testing): unit not given here; conditions: Tables 7 and 8; unit not given
Outline: as §1

| SMILES | CL5242 (in vitro testing) [1] | CL4931 (in vitro testing) [2] | CL5053 (in vitro testing) [3] | Mean [4] | CL4877 (in vitro testing) [5] |
| --- | --- | --- | --- | --- | --- |
| CNC(CC(C)C)C(=O)NC1C(=O)NC(CC(N)=O)C(=O)NC2C(=O)NC3C(=O)NC(C(=O)NC(C(=O)O)c4cc(O)cc(O)c4-c4cc3ccc4O)C(O)c3ccc(c(Cl)c3)Oc3cc2cc(c3OC2OC(CN)C(O)C(O)C2OC2CC(C)(NCc3ccc(OCc4ccc(Cl)cc4Cl)cc3)C(O)C(C)O2)Oc2ccc(cc2Cl)C1O (centres unmarked) [Compound 173] | 1 | 8 | 8 | 4.75 | 2 |
| CNC(CC(C)C)C(=O)NC1C(=O)NC(CC(N)=O)C(=O)NC2C(=O)NC3C(=O)NC(C(=O)NC(C(=O)O)c4cc(O)cc(O)c4-c4cc3ccc4O)C(O)c3ccc(c(Cl)c3)Oc3cc2cc(c3OC2OC(CN)C(O)C(O)C2OC2CC(C)(NCc3ccc(OCc4cc(Cl)ccc4Cl)cc3)C(O)C(C)O2)Oc2ccc(cc2Cl)C1O (centres unmarked) [Compound 174] | 8 | 16 | 16 | 14 | 16 |
| CNC(CC(C)C)C(=O)NC1C(=O)NC(CC(N)=O)C(=O)NC2C(=O)NC3C(=O)NC(C(=O)NC(C(=O)O)c4cc(O)cc(O)c4-c4cc3ccc4O)C(O)c3ccc(c(Cl)c3)Oc3cc2cc(c3OC2OC(CN)C(O)C(O)C2OC2CC(C)(NCc3ccc(OCc4cc(Cl)cc(Cl)c4)cc3)C(O)C(C)O2)Oc2ccc(cc2Cl)C1O (centres unmarked) [Compound 175] | 2 | 4 | 4 | 3 | 2 |
| CNC(CC(C)C)C(=O)NC1C(=O)NC(CC(N)=O)C(=O)NC2C(=O)NC3C(=O)NC(C(=O)NC(C(=O)O)c4cc(O)cc(O)c4-c4cc3ccc4O)C(O)c3ccc(c(Cl)c3)Oc3cc2cc(c3OC2OC(CN)C(O)C(O)C2OC2CC(C)(NCc3ccc(OCc4c(Cl)cccc4Cl)cc3)C(O)C(C)O2)Oc2ccc(cc2Cl)C1O (centres unmarked) [Compound 176] | 4 | 16 | 16 | 13 | >16 |
| CNC(CC(C)C)C(=O)NC1C(=O)NC(CC(N)=O)C(=O)NC2C(=O)NC3C(=O)NC(C(=O)NC(C(=O)O)c4cc(O)cc(O)c4-c4cc3ccc4O)C(O)c3ccc(c(Cl)c3)Oc3cc2cc(c3OC2OC(CN)C(O)C(O)C2OC2CC(C)(NCc3ccc(OCc4ccc(C(=O)OC)cc4)cc3)C(O)C(C)O2)Oc2ccc(cc2Cl)C1O (centres unmarked) [Compound 177] | 4 | >16 | >16 | 13 | >16 |
| CNC(CC(C)C)C(=O)NC1C(=O)NC(CC(N)=O)C(=O)NC2C(=O)NC3C(=O)NC(C(=O)NC(C(=O)O)c4cc(O)cc(O)c4-c4cc3ccc4O)C(O)c3ccc(c(Cl)c3)Oc3cc2cc(c3OC2OC(CN)C(O)C(O)C2OC2CC(C)(NCc3ccc(OCc4ccc([N+](=O)[O-])cc4)cc3)C(O)C(C)O2)Oc2ccc(cc2Cl)C1O (centres unmarked) [Compound 178] | 8 | 32 | >32 | 27 | >32 |
| CNC(CC(C)C)C(=O)NC1C(=O)NC(CC(N)=O)C(=O)NC2C(=O)NC3C(=O)NC(C(=O)NC(C(=O)O)c4cc(O)cc(O)c4-c4cc3ccc4O)C(O)c3ccc(c(Cl)c3)Oc3cc2cc(c3OC2OC(CN)C(O)C(O)C2OC2CC(C)(NCc3ccc(OCc4ccc(C(F)(F)F)cc4)cc3)C(O)C(C)O2)Oc2ccc(cc2Cl)C1O (centres unmarked) [Compound 179] | 1 | 8 | 8 | 3.25 | 4 |
| CNC(CC(C)C)C(=O)NC1C(=O)NC(CC(N)=O)C(=O)NC2C(=O)NC3C(=O)NC(C(=O)NC(C(=O)O)c4cc(O)cc(O)c4-c4cc3ccc4O)C(O)c3ccc(c(Cl)c3)Oc3cc2cc(c3OC2OC(CN)C(O)C(O)C2OC2CC(C)(NCc3ccc(OCc4ccccc4C(F)(F)F)cc3)C(O)C(C)O2)Oc2ccc(cc2Cl)C1O (centres unmarked) [Compound 180] | 2 | 16 | 16 | 12.5 | 16 |
| CNC(CC(C)C)C(=O)NC1C(=O)NC(CC(N)=O)C(=O)NC2C(=O)NC3C(=O)NC(C(=O)NC(C(=O)O)c4cc(O)cc(O)c4-c4cc3ccc4O)C(O)c3ccc(c(Cl)c3)Oc3cc2cc(c3OC2OC(CN)C(O)C(O)C2OC2CC(C)(NCc3ccc(OCc4ccc(F)cc4Cl)cc3)C(O)C(C)O2)Oc2ccc(cc2Cl)C1O (centres unmarked) [Compound 181] | 4 | 16 | 32 | 21 | 32 |
| CNC(CC(C)C)C(=O)NC1C(=O)NC(CC(N)=O)C(=O)NC2C(=O)NC3C(=O)NC(C(=O)NC(C(=O)O)c4cc(O)cc(O)c4-c4cc3ccc4O)C(O)c3ccc(c(Cl)c3)Oc3cc2cc(c3OC2OC(CN)C(O)C(O)C2OC2CC(C)(NCc3ccc(OCc4ccccc4Cl)cc3)C(O)C(C)O2)Oc2ccc(cc2Cl)C1O (centres unmarked) [Compound 182] | 4 | >16 | >16 | 13 | >16 |
| CNC(CC(C)C)C(=O)NC1C(=O)NC(CC(N)=O)C(=O)NC2C(=O)NC3C(=O)NC(C(=O)NC(C(=O)O)c4cc(O)cc(O)c4-c4cc3ccc4O)C(O)c3ccc(c(Cl)c3)Oc3cc2cc(c3OC2OC(CN)C(O)C(O)C2OC2CC(C)(NCc3ccc(OCc4ccc(Cl)c(Cl)c4)cc3Cl)C(O)C(C)O2)Oc2ccc(cc2Cl)C1O (centres unmarked) [Compound 183] | 2 | 8 | 4 | 4 | 2 |
| CNC(CC(C)C)C(=O)NC1C(=O)NC(CC(N)=O)C(=O)NC2C(=O)NC3C(=O)NC(C(=O)NC(C(=O)O)c4cc(O)cc(O)c4-c4cc3ccc4O)C(O)c3ccc(c(Cl)c3)Oc3cc2cc(c3OC2OC(CN)C(O)C(O)C2OC2CC(C)(NCc3ccc(OCc4ccc(Cl)c(Cl)c4)c(OC)c3)C(O)C(C)O2)Oc2ccc(cc2Cl)C1O (centres unmarked) [Compound 184] | 2 | 4 | 4 | 4.5 | 8 |
| CNC(CC(C)C)C(=O)NC1C(=O)NC(CC(N)=O)C(=O)NC2C(=O)NC3C(=O)NC(C(=O)NC(C(=O)O)c4cc(O)cc(O)c4-c4cc3ccc4O)C(O)c3ccc(c(Cl)c3)Oc3cc2cc(c3OC2OC(CN)C(O)C(O)C2OC2CC(C)(NCc3ccc(OCc4ccc(Cl)c(Cl)c4)cc3OC)C(O)C(C)O2)Oc2ccc(cc2Cl)C1O (centres unmarked) [Compound 185] | 4 | 8 | 16 | 8 | 4 |
| CNC(CC(C)C)C(=O)NC1C(=O)NC(CC(N)=O)C(=O)NC2C(=O)NC3C(=O)NC(C(=O)NC(C(=O)O)c4cc(O)cc(O)c4-c4cc3ccc4O)C(O)c3ccc(c(Cl)c3)Oc3cc2cc(c3OC2OC(CN)C(O)C(O)C2OC2CC(C)(NCc3ccc(Oc4ccc(Cl)c(Cl)c4)cc3)C(O)C(C)O2)Oc2ccc(cc2Cl)C1O (centres unmarked) [Compound 186] | 2 | 8 | 8 | 6.5 | 8 |
| CNC(CC(C)C)C(=O)NC1C(=O)NC(CC(N)=O)C(=O)NC2C(=O)NC3C(=O)NC(C(=O)NC(C(=O)O)c4cc(O)cc(O)c4-c4cc3ccc4O)C(O)c3ccc(c(Cl)c3)Oc3cc2cc(c3OC2OC(CN)C(O)C(O)C2OC2CC(C)(NCc3ccc(C(=O)Oc4ccc(Cl)cc4)cc3)C(O)C(C)O2)Oc2ccc(cc2Cl)C1O (centres unmarked) [Compound 187] | 4 | 16 | 16 | 17 | 32 |
| CNC(CC(C)C)C(=O)NC1C(=O)NC(CC(N)=O)C(=O)NC2C(=O)NC3C(=O)NC(C(=O)NC(C(=O)O)c4cc(O)cc(O)c4-c4cc3ccc4O)C(O)c3ccc(c(Cl)c3)Oc3cc2cc(c3OC2OC(CN)C(O)C(O)C2OC2CC(C)(NCc3ccc(C(=O)Oc4ccc(Cl)c(Cl)c4)cc3)C(O)C(C)O2)Oc2ccc(cc2Cl)C1O (centres unmarked) [Compound 188] | 4 | 8 | 16 | 11 | 16 |
